Structures can show the parent of a compound that is named as a salt.

The nature of data set [1]: Solubility in resist solvent (PGMEA). Type of data set: physicochemical. To be noted: for Solubility: in propylene glycol monomethyl ether acetate (PGMEA).
A short description of data set [2]: Compatibility of PAG with resist (base resin). To be noted: for Compatibility: acid generator (1.0), PGMEA (400).

Regarding `CC(CC(S(=O)(=O)C(F)(F)F)S(=O)(=O)C(F)(F)F)OC(=O)C12CC3CC(CC(C3)C1)C2` (centres unmarked) [PAG1, 3-(1-adamantanecarbonyl)oxy 1,1-bis(trifluoromethanesulfonyl)butane triphenylsulfonium salt], the “Solubility compared with existing PAG (PAG2) having an adamantane skeleton” value in data set [1] (in PGMEA, statement in words) is reported as “superior”. For the same compound, the Solubility result in data set [1] was “not less than 0.1 parts by weight of PAG dissolved in 100 parts by weight of PGMEA”. The Compatibility result in data set [2] (Resin 1 (40 parts by wt.)), in data set [2] (Resin 2 (40 parts by wt.)), in data set [2] (Resin 3 (40 parts by wt.)), in data set [2] (Resin 4 (40 parts by wt.)) and in data set [2] (Resin 5 (40 parts by wt.)) was “Good” in each case. Further, the “Compatibility with resists compared with conventional products” value in data set [2] (summary of Table 2 and Table 3, in words) is “higher compatibility with resists as compared with conventional products”.
On to “(adamantan-1-ylmethyl)oxycarbonyl difluoromethanesulfonic acid triphenylsulfonium [PAG2, reference compound]”, for which the Solubility in data set [1] is recorded as 0.3 parts by weight of PAG dissolved in 100 parts by weight of PGMEA. The Compatibility entry in data set [2] (Resin 1 (40 parts by wt.)), in data set [2] (Resin 2 (40 parts by wt.)), in data set [2] (Resin 3 (40 parts by wt.)) and in data set [2] (Resin 4 (40 parts by wt.)) was “Good” each time.
Consider “nonafluorobutanesulfonic acid triphenylsulfonium salt [PAG3, reference compound]”, for which the Compatibility result in data set [2] (Resin 1 (40 parts by wt.)) was “Good”.

The record behind these values is patent publication US8580486B2, “Salt having fluorine-containing carbanion structure, derivative thereof, photoacid generator, resist material using the photoacid generator, and pattern forming method” (Central Glass Company, Limited, priority 2008, dated 2013).
